Reference: US11905244B2, “Chemical modulators of store-operated calcium channels and their therapeutic applications” (The Texas A&M University System, priority 2017, dated 2024)
Entries after “also recorded” stand apart in the source; their conditions may differ. Read-outs that look alike come from different tables or passages of the source.

Legend:
CRAC channel = CRAC channel (Homo sapiens (Human), UniProt Q96D31); test: GFP-NFAT translocation-based high-content screening (TG-stimulated HeLa cells stably expressing GFP-NFAT); type: cell-based; details: for Inhibitory activity on CRAC channel in primary screening (NFAT nucleus-to-cytosol ratio): 200 μM compound
From the text: It is known that thapsigargin (TG) can induce the CRAC channel to open resulting in the calcium influx. The elevation of calcium in cytoplasm can activate the Ca^2+-calcineurin-NFAT pathway followed by NFAT translocation from the cytoplasm to the nucleus to regulate gene transcription. Therefore, the inventors built a GFP-NFAT translocation-based high-content screening method to evaluate the activity of compounds on CRAC channel. Briefly, a HeLa cell line stably expressing GFP-NFAT was established and used, and the images after chemical stimulation in the presence of TG were acquired using an IN Cell Analyzer 6000 confocal laser imaging system, and then the GFP fluorescent intensity ratio between cytoplasm and nucleus was analyzed to reflect the inhibitory activity of compound on CRAC channel.
Briefly, GFP-NFAT stable cells were cultured in Dulbecco's modified eagle's medium (DMEM) supplemented with 10% FBS in 5% carbon dioxide at 37° C. When it reached 90% confluency, a cell suspension with a concentration of […] was prepared, and an amount of 2000 cells per well (25 μL/well) was seeded in 384 well plate, putting it at the room temperature for 1 h to make sure the cells distribute evenly, then the cells were incubated overnight. First, primary screening of the selected compounds was conducted. A series of compound solutions with a concentration of 200 μM in MEDM medium were prepared in a 96 well plate and then added to a 384 well plate using a Beckman Coulter automatic drug adding system, in 4 duplicates, and incubated for 30 min at 37° C. SKF was selected as the positive control. Then, 1 μM TG and 1 mM Ca^2+ were added to 384-well plate using Beckman Coulter automatic drug adding system and incubated for 20 min. Subsequently, 384 well plate was gently washed with PBS twice, and the cells were fixed with 4% PFA (25 μl per well) for 10˜15 mins at room temperature, then washed with PBS gently, added 0.5% Triton X-100 (25 μL per well), and incubated for 5 mins aFt room temperature, stained with DAPI (1 μg/mL) for 5˜10 mins at room temperature, washed with PBS and added 30 μL PBS per well to image on confocal laser imaging system (objective lens: 10×, FITC and UV). Using Pipeline Plot software (NAFT translocation protocol), the intensity of green fluorescence was analyzed in nucleus and cytosol, calculate the ratio of nucleus:cytosol, normalize TG stimulate NFAT translocation as 1 and no TG adding as 0. Finally, the data was analyzed using GraphPad Prism 5 software.

calcium influx = test: Inhibitory activity on calcium influx; type: cell-based
[1] = system: IL-2 and IFNγ expression in Jurkat cell; test: Cytokine expression in Jurkat cells; type: cell-based
[2] = system: MDA-MB-231 breast cancer cells; test: Migration assay (wound healing assay); type: cell-based; details: MDA-MB-231, wound healing assay
Experimental: The effect of compounds on inhibiting migration was evaluated using wound healing assay. Briefly, cells were seeded in a six well-plate, and a wound was generated by scratching the cell monolayer with a 200 μL pipette tip. Then, cells were continued to be cultured in the presence or absence of compounds, and the photographic recording was performed at 0 h, 24 h, and 48 h respectively. The number of the migrated cells was calculated with ImageJ software.

[3] = system: azoxymethane (AOM)-induced mouse colon cancer model; test: Azoxymethane (AOM)-induced mouse colon cancer model; type: in vivo; details: treated for 8 weeks
Experimental: To induce colon cancer in situ, mice (four month old) were randomly divided into three groups: (1) AOM control group; (2) Compound 53 group, (3) CsA group, and injected with AOM subcutaneously (10 mg/kg body weight) once a week for 4 weeks. Then, Compound 53 and CsA group were treated with Compound 53 and CsA respectively for 8 weeks, and the control group was treated with 0.9% NaCl solution. Then, mice were killed and the colon was isolated. The number of the tumors formed was analyzed.

[4] = system: MDA-MB-231 breast cancer cells; test: Invasion assay; type: cell-based
[5] = system: cytokine IL-2 expression in primary T cells; test: Effect of compounds on cytokine expression in primary T cells (flow cytometry); type: cell-based; details: Mus musculus, T-cell
Experimental: The lymph nodes and a spleen from mouse were collected, and then the immune cells were induced to differentiate towards Th1 cells in presence of α-CD3, α-CD28, IL-12, and IL-2. After obtaining Th1 cells, the cells were amplified and then the cells were treated with drugs. The expression level of the cytokine was analyzed using flow cytometry.

Jurkat cells = test: Cell cycle analysis in Jurkat cells; type: cell-based; details: compared to control
Experimental: (§1) Cells were treated with or without compounds at 37° C. with 5% CO2. After incubation for 24 h, cells were collected by trypsinization and fixed with cold 95% ethanol over 30 min at 4° C. Subsequently, the cell suspension was centrifuged at 1000 rmp/5 min, and washed with PBS one time. The cell pellets were resuspended in 0.4 mL PBS and treated with RNAase A (0.1 mg/mL) at 37° C. for 30 min. Then, propidium iodine (50 μg/mL, PI) was added and the cells were stained for 30 min at 37° C. Analysis of cellular DNA content was performed by flow cytometry.

U87 cells = test: Cell cycle analysis in U87 cells; type: cell-based; details: compared to control
Experimental: as §1

[6] = GFP-NFAT translocation assay, read-out: IC50 on CRAC channel
[7] = Table 2, unit inferred, read-out: IC50 of the compounds (inhibitory activity on CRAC channel)

CRAC channel, sequence (Q96D31 whole entry): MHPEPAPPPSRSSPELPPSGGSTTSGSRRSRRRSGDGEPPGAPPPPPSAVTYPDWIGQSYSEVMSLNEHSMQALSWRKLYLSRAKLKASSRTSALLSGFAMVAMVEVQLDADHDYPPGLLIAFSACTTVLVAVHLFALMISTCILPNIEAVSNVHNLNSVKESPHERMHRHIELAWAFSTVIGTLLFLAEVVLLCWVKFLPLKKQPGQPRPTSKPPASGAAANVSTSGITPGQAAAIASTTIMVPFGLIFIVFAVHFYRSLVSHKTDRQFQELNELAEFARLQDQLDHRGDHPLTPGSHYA

Row | IC50 (CRAC channel; [7]) | SMILES | other results
1 | 9.2 µM | COC(=O)c1ccc(N2C(=O)CC(S/C(=N/c3ccc(C)cc3)NCCc3ccc(S(N)(=O)=O)cc3)C2=O)cc1 (stereo not shown) [Compound 102] | –
2 | 15.8 µM | CCOC(=O)c1ccc(N2C(=O)CC(S/C(=N/c3ccccc3)NCCc3ccc(S(N)(=O)=O)cc3)C2=O)cc1 (stereo not shown) [Compound 103] | –
3 | > 200 µM | NS(=O)(=O)c1ccc(CCNC(=S)Nc2cccc3ccccc23)cc1 [Compound 104] | –
4 | > 200 µM | COc1ccc(N2C(=O)CC(S/C(=N/c3ccc(C)cc3)NCCc3ccc(S(N)(=O)=O)cc3)C2=O)cc1 (stereo not shown) [Compound 105] | –
5 | 5.01 µM | COc1ccc(N2C(=O)CC(S/C(=N/c3ccccc3)NCCc3ccc(S(N)(=O)=O)cc3)C2=O)cc1 (stereo not shown) [Compound 106] | –
6 | > 200 µM | CCOC(=O)c1ccc(N2C(=O)CC(S/C(=N/c3ccc(OC)cc3)NCCc3ccc(S(N)(=O)=O)cc3)C2=O)cc1 (stereo not shown) [Compound 107] | –
7 | > 200 µM | COc1ccc(/N=C(\NCCc2ccc(S(N)(=O)=O)cc2)SC2CC(=O)N(c3ccc(OC)cc3)C2=O)cc1 (stereo not shown) [Compound 108] | –
8 | > 200 µM | COc1ccc(N2C(=O)CC(S/C(=N/c3cc(OC)ccc3OC)NCCc3ccc(S(N)(=O)=O)cc3)C2=O)cc1 (stereo not shown) [Compound 109] | –
9 | > 200 µM | CCOC(=O)c1ccc(N2C(=O)CC(S/C(=N/c3cc(OC)ccc3OC)NCCc3ccc(S(N)(=O)=O)cc3)C2=O)cc1 (stereo not shown) [Compound 110] | –
10 | 1.6 µM | COc1ccc(/N=C(\NCCc2ccc(S(N)(=O)=O)cc2)SC2CC(=O)N(c3ccccc3)C2=O)cc1 (stereo not shown) [Compound 111] | –
11 | 0.2 µM | COc1ccc(OC)c(/N=C(\NCCc2ccc(S(N)(=O)=O)cc2)SC2CC(=O)N(c3ccccc3)C2=O)c1 (stereo not shown) [Compound 112] | –
12 | 5.83 µM | Cc1ccc(/N=C(\NCCc2ccc(S(N)(=O)=O)cc2)SC2CC(=O)N(c3ccccc3)C2=O)cc1 (stereo not shown) [Compound 113] | –
13 | > 200 µM | COc1ccc(/N=C(\NCCc2ccc(S(N)(=O)=O)cc2)SC2CC(=O)N(c3ccc(C)cc3)C2=O)cc1 (stereo not shown) [Compound 114] | –
14 | 5.84 µM | Cc1ccc(/N=C(\NCCc2ccc(S(N)(=O)=O)cc2)SC2CC(=O)N(c3ccc(C)cc3)C2=O)cc1 (stereo not shown) [Compound 115] | –
15 | > 200 µM | CCOC(=O)c1ccc(N2C(=O)CC(S/C(=N/c3ccc(C)cc3)NCCc3ccc(S(N)(=O)=O)cc3)C2=O)cc1 (stereo not shown) [Compound 116] | –
16 | > 200 µM | CCOC(=O)c1ccc(N2C(=O)CC(Sc3nc4ccccc4n3CCc3ccc(S(N)(=O)=O)cc3)C2=O)cc1 (stereo not shown) [Compound 117] | –
17 | > 200 µM | COc1ccc(N2C(=O)CC(Sc3nc4ccccc4n3CCc3ccc(S(N)(=O)=O)cc3)C2=O)cc1 (stereo not shown) [Compound 118] | –
18 | > 200 µM | Cc1ccc(N2C(=O)CC(Sc3nc4ccccc4n3CCc3ccc(S(N)(=O)=O)cc3)C2=O)cc1 (stereo not shown) [Compound 119] | –
19 | > 200 µM | COc1ccc(N2C(=O)CC(Br)C2=O)cc1 (stereo not shown) [Compound 120] | –

The remaining lines, values behind:

Row | SMILES | IC50 (CRAC channel; [7]) | other results
20 | CCN/C(=N\c1cc(Cl)cc(Cl)c1)S[C@H]1CC(=O)N(c2ccc(C(=O)O)cc2)C1=O [Compound 41] | – | Inhibitory activity on CRAC channel in primary screening (NFAT nucleus-to-cytosol ratio) (CRAC channel): good activity; IC50 (CRAC channel; [6]): ~100 µM; IC50 (CRAC channel; Table 1, hits from virtual screening, unit inferred, read-out: IC50 Value): 279 µM; Inhibitory activity on calcium influx (calcium influx): obvious inhibitory activity
21 | COC(=O)c1ccc(N2C(=O)CC(S/C(=N\c3ccccc3)NCCc3ccc(S(N)(=O)=O)cc3)C2=O)cc1 (stereo not shown) [Compound 53] | 13 µM | IL-2 and IFNγ (cytokine) expression [1]: inhibit IL-2 and IFNγ expression; also recorded: inhibits cytokine expression; Inhibitory activity on CRAC channel in primary screening (NFAT nucleus-to-cytosol ratio) (CRAC channel): good inhibition; IC50 (CRAC channel; [6]): 8.14 µM; Cell migration [2]: greatly inhibit; Antitumor activity compared with positive control drug CsA [3]: better than the positive control drug CsA; Number of the formed tumors in the colon [3]: greatly decrease the number of the formed tumors; also recorded: reducing the number of tumors formed compared to the control group; Cell invasion [4]: greatly inhibit; IC50 [5]: 15.6 ± 1.17 µM
22 | CN/C(=N/c1cc(Cl)ccc1Cl)SC1CC(=O)N(c2ccc(C(=O)OC)cc2)C1=O (stereo not shown) [Compound 65] | 30.6 µM | Inhibitory activity on CRAC channel in primary screening (NFAT nucleus-to-cytosol ratio) (CRAC channel): good inhibition; Cell migration [2]: greatly inhibit
23 | CCN/C(=N/c1ccc2c(c1)OCO2)SC1CC(=O)N(c2ccc(C(=O)OC)cc2)C1=O (stereo not shown) [Compound 66] | 10.5 µM | Inhibitory activity on CRAC channel in primary screening (NFAT nucleus-to-cytosol ratio) (CRAC channel): good inhibition; Cell migration [2]: greatly inhibit
24 | CCOC(=O)c1ccc(N2C(=O)CC(S/C(=N/c3ccccc3)NC3CC3)C2=O)cc1 (stereo not shown) [Compound 87] | 0.95 µM | Effect on cell cycle (Jurkat cells): cell cycle arrest at GO stage; Effect on cell cycle (U87 cells): cell cycle arrest at GO stage; Cell migration [2]: greatly inhibit; Cell invasion [4]: greatly inhibit; IC50 [5]: 0.86 ± 0.12 µM
25 | CCOC(=O)c1ccc(N2C(=O)CC(S/C(=N/c3ccccc3)NC(C)(C)C)C2=O)cc1 (stereo not shown) [Compound 88] | > 200 µM | –
26 | CNC(=O)c1ccc(N2C(=O)CC(S/C(=N/c3ccccc3)NC)C2=O)cc1 (stereo not shown) [Compound 89] | > 200 µM | –
27 | CCN/C(=N\c1ccccc1)SC1CC(=O)N(c2ccc(C(=O)NC)cc2)C1=O (stereo not shown) [Compound 90] | > 200 µM | –
28 | CCCN/C(=N\c1ccccc1)SC1CC(=O)N(c2ccc(C(=O)NC)cc2)C1=O (stereo not shown) [Compound 91] | > 200 µM | –
29 | CCCCN/C(=N\c1ccccc1)SC1CC(=O)N(c2ccc(C(=O)NC)cc2)C1=O (stereo not shown) [Compound 92] | > 200 µM | –
30 | CNC(=O)c1ccc(N2C(=O)CC(S/C(=N/c3ccccc3)NC(C)C)C2=O)cc1 (stereo not shown) [Compound 93] | > 200 µM | –
31 | CNC(=O)c1ccc(N2C(=O)CC(S/C(=N/c3ccccc3)NC3CC3)C2=O)cc1 (stereo not shown) [Compound 94] | > 200 µM | –
32 | CNC(=O)c1ccc(N2C(=O)CC(S/C(=N/c3ccccc3)NC(C)(C)C)C2=O)cc1 (stereo not shown) [Compound 95] | > 200 µM | –
33 | NS(=O)(=O)c1ccc(CCN/C(=N\c2ccccc2)SC2CC(=O)N(c3ccccc3)C2=O)cc1 (stereo not shown) [Compound 96] | 10.9 µM | –
34 | NS(=O)(=O)c1ccc(CCNC(=S)Nc2cccnc2)cc1 [Compound 97] | > 200 µM | –
35 | COC(=O)c1ccc(N2C(=O)CC(S/C(=N/c3cc(OC)ccc3OC)NCCc3ccc(S(N)(=O)=O)cc3)C2=O)cc1 (stereo not shown) [Compound 98] | 21.2 µM | –
36 | CNC(=O)c1ccc(N2C(=O)CC(S/C(=N/c3ccccc3)NCCc3ccc(S(N)(=O)=O)cc3)C2=O)cc1 (stereo not shown) [Compound 99] | 18.2 µM | –
37 | COC(=O)c1ccc(N2C(=O)CC(S/C(=N/c3ccc(OC)cc3)NCCc3ccc(S(N)(=O)=O)cc3)C2=O)cc1 (stereo not shown) [Compound 100] | 14.8 µM | –
38 | COC(=O)c1ccc(N2C(=O)CC(S/C(=N/c3cccc(OC)c3)NCCc3ccc(S(N)(=O)=O)cc3)C2=O)cc1 (stereo not shown) [Compound 101] | 11.2 µM | –
